pEC50, pIC50, pKd: −log10 of the molar value.
Legend:
[1] = test system: A375 cells; experiment: cells; conditions: Homo sapiens, A-375, read-out: A375 Viability EC50
[2] = test system: MEK1 phosphorylation in the A375 human melanoma cell line; experiment: cells; conditions: A-375, read-out: pMEK IC50
[3] = biological target: RAF kinases (Homo sapiens, UniProt P15056); experiment: biochemical
[4] = biological target: RAF kinases (Homo sapiens, UniProt P04049); experiment: biochemical
RAF kinases (Homo sapiens, UniProt P04049), sequence (P04049 whole entry): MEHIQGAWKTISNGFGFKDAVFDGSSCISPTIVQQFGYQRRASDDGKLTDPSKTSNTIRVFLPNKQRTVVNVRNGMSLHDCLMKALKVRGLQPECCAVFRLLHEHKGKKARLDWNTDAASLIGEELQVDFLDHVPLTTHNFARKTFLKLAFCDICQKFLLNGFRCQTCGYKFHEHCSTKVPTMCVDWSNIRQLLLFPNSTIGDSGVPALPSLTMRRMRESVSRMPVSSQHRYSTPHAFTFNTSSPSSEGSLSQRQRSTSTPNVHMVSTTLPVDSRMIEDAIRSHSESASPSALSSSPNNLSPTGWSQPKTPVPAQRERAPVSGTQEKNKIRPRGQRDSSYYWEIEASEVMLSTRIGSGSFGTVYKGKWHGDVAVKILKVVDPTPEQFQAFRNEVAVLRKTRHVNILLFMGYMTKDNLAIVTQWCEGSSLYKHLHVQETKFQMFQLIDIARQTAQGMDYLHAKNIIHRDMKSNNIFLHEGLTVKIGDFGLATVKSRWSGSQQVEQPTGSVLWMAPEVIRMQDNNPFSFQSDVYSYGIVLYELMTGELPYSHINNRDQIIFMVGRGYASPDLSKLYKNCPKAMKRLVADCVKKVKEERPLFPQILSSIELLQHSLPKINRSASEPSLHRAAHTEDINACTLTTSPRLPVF

RAF kinases (Homo sapiens, UniProt P15056), sequence (P15056 whole entry): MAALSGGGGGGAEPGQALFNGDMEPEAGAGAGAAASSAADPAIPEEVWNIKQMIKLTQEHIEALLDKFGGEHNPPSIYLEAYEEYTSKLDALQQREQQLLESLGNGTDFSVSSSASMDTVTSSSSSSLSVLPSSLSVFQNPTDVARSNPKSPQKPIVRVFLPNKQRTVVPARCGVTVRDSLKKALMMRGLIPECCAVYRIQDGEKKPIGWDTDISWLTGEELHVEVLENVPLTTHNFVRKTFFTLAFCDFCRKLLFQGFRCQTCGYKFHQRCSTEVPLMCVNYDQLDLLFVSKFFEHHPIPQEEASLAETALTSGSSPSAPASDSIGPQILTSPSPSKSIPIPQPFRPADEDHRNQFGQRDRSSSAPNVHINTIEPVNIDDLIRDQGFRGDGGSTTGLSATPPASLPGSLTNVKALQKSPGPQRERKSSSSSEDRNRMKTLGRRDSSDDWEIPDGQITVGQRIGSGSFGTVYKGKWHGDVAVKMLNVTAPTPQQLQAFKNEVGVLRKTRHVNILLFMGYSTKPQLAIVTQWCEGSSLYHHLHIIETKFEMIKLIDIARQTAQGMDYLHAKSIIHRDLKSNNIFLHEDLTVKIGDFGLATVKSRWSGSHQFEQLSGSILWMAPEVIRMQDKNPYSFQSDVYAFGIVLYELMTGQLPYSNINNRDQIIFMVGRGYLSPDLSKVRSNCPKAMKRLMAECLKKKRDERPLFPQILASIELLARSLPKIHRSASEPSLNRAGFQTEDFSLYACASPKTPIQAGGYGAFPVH

Row | Compound | pEC50 [1] | pIC50 [2] | pKd [3] | pKd [4]
1 | COc1cc2c(Sc3cccc(NC(=O)Nc4cc(C(C)(C)C)on4)c3)ncnc2cc1OCCN1CCN(C)CC1 [Ex 83, 1-(5-tert-butylisoxazol-3-yl)-3-(3-(6-methoxy-7-(2-(4-methylpiperazin-1-yl)ethoxy)quinazolin-4-ylthio)phenyl)urea] | < 6.00 | > 6.60 | 6.30 to 6.60 | 6.30 to 6.60
2 | COc1cc2c(Oc3cccc(NC(=O)Nc4cc(C(C)(C)C)on4)c3)ncnc2cc1OCCN1CCN(C)CC1 [Ex 36, 1-(5-tert-butylisoxazol-3-yl)-3-(3-(6-methoxy-7-(2-(4-methylpiperazin-1-yl)ethoxy)quinazolin-4-yloxy)phenyl)urea] | 6.30 to 6.60 | > 6.60 | 6.30 to 6.60 | 6.30 to 6.60
3 | COc1cc2ncnc(Oc3cccc(NC(=O)Nc4cc(C(C)(C)C)on4)c3)c2cc1OCCN1CCN(C)CC1 [Ex 18, 1-(5-tert-butylisoxazol-3-yl)-3-(3-(7-methoxy-6-(2-(4-methylpiperazin-1-yl)ethoxy)quinazolin-4-yloxy)phenyl)urea] | 6.30 to 6.60 | > 6.60 | 6.30 to 6.60 | 6.00 to 6.30
4 | COc1cc2c(Oc3cccc(NC(=O)Nc4cc(C(C)(C)C)on4)c3)ncnc2cc1OCCCN1CCN(S(C)(=O)=O)CC1 [Ex 32, 1-(5-tert-butylisoxazol-3-yl)-3-(3-(6-methoxy-7-(3-(4-(methylsulfonyl)piperazin-1-yl)propoxy)quinazolin-4-yloxy)phenyl)urea] | 6.30 to 6.60 | > 6.60 | 6.00 to 6.30 | 6.30 to 6.60
5 | COCCOc1ccc2c(Oc3cccc(NC(=O)Nc4cc(C(C)(C)C)on4)c3)ncnc2c1 [Ex 43, 1-(5-tert-butylisoxazol-3-yl)-3-(3-(7-(2-methoxyethoxy)quinazolin-4-yloxy)phenyl)urea] | < 6.00 | 6.30 to 6.60 | 6.00 to 6.30 | 6.30 to 6.60
6 | CC(C)(C)c1cc(NC(=O)Nc2cccc(Sc3ncnc4ccc(OCCCN5CCS(=O)(=O)CC5)cc34)c2)no1 [Ex 90, 1-(5-tert-butyl-isoxazol-3-yl)-3-(3-{6-[3-(1,1-dioxo-thiomorpholin-4-yl)-propoxy]-quinazolin-4-ylsulfanyl}-phenyl)-urea] | < 6.00 | > 6.60 | 6.00 to 6.30 | 6.30 to 6.60
7 | COc1cc2c(Sc3cccc(NC(=O)Nc4cc(C(C)(C)C)on4)c3)ncnc2cc1OCCN1CCCCC1 [Ex 80, 1-(5-tert-butylisoxazol-3-yl)-3-(3-(6-methoxy-7-(2-(piperidin-1-yl)ethoxy)quinazolin-4-ylthio)phenyl)urea] | < 6.00 | 6.30 to 6.60 | 6.30 to 6.60 | 6.30 to 6.60
8 | COc1cc2c(Oc3cccc(NC(=O)Nc4cc(C(C)(C)C)on4)c3)ncnc2cc1OCCN1CCN(CCO)CC1 [Ex 38, 1-(5-tert-butylisoxazol-3-yl)-3-(3-(7-(2-(4-(2-hydroxyethyl)piperazin-1-yl)ethoxy)-6-methoxyquinazolin-4-yloxy)phenyl)urea] | 6.30 to 6.60 | > 6.60 | 6.30 to 6.60 | 6.30 to 6.60
9 | COc1cc2c(Oc3cccc(NC(=O)Nc4cc(C(C)(C)C)on4)c3)ncnc2cc1OCCCN1CC[C@@H](O)C1 [Ex 34, (R)-1-(5-tert-Butylisoxazol-3-yl)-3-(3-(7-(3-(3-hydroxypyrrolidin-1-yl)propoxy)-6-methoxyquinazolin-4-yloxy)phenyl)urea] | < 6.00 | > 6.60 | 6.30 to 6.60 | 6.30 to 6.60
10 | CCOc1cccc(NC(=O)Nc2cccc(Oc3ncnc4cc(OC)c(OC)cc34)c2)c1 [Ex 179, 1-(3-(6,7-dimethoxyquinazolin-4-yloxy)phenyl)-3-(3-ethoxyphenyl)urea] | < 6.00 | < 6.00 | 6.00 to 6.30 | 6.30 to 6.60

— patent publication US8618289B2 (Ambit Biosciences Corporation, priority 2008, dated 2013)
